Results on one substance are retold here after patent publication US20120142701A1 (priority 2010, published 2012).

For experiment [1], the system named is A/Vietnam/1194/04 H5N1 virus. The experiment is classed as in vivo, BALB/c female mice.
The subject of another experiment is A/WSN/33 virus. The experiment is described as follows: multicycle growth assay, viral titres by plaques assay in MDCK cells. Conditions: MDCK cells infected with A/WSN/33 at 0.001 MOI. The experiment is classed as cell-based, influenza A H1N1 (A/WSN/33). As to the method: FIG. 3 is a plot of the antiviral activity of an aggregation-inducing agent nucleozin in multicycle growth assays. Madin-Darby Canine Kidney (MDCK) cells were infected with A/WSN/33 virus at 0.001 MOI in the presence or absence of nucleozin (0.1 or 1 μM). Viral titres were determined by plaques assay at the time indicated.

Experiment [2] concerns nucleoprotein. Format: biochemical.
Experiment [3] concerns the target nucleoprotein (Influenza A virus, UniProt P15682). The experiment can be described thus: cellular immunofluorescence microscopy in infected A549 cells. The experiment is classed as cell-based, influenza A/WSN/33 virus.
The target in experiment [4] is T1, nucleoproteins (Influenza A virus, UniProt P03466). The experiment is described as follows: cell-based aggregation assay (immunofluorescence microscopy). From the text:
A cell-based method for identifying compounds that promote aggregation includes:
a.) treating cells with one or more test compounds for a period of time;
b.) adding a fixing solution to stop protein translation;
c.) treating the cells with a fluorescent antibody that binds specifically to a protein, glycoprotein, or protein-nucleic acid complex;
d.) determining the presence or absence of aggregation,
wherein if aggregation is present in (d), the test compound is identified as a compound that may promote aggregation.
1. 25 μl of culture medium is added into each well of a 384-well plate followed by the addition of a test compound from a chemical library in each well. Then 25 μl of cells (6×10^3 cells/well) with undesirable physiological conditions in DMEM with 10% fetal bovine serum are seeded into each assay well. Plates are incubated at 37° C. in a 5% CO2 humid atmosphere for 1 day.
2. The supernatant is removed from each well, and washed with 50 μl of phosphate-buffered saline (PBS).
3. The PBS is aspirated off and 50 μl of a cold (4° C.) fixing solution of 3.65% formaldehyde in PBS was added to each well. The plate was incubated for 1 h at 4° C.
4. The fixing solution was aspirated off and 50 μl of 0.1% Nonidet P-40 solution in PBS was added to each well. […]
8. The aggregation of proteins, glycoproteins, or protein-nucleic acid complexes is detected by immunofluorescence microscopy.

In experiment [5] the target is T1, nucleoproteins. The experiment can be described thus: cell-free aggregation assay (aggregation plate reader). Format: biochemical. As to the method: A cell-free method for identifying compounds that promote aggregation of proteins, glycoproteins, or protein-nucleic acid complexes includes:
a.) combining a mixture of bovine serum albumin and one or more proteins, glycoproteins, or protein-nucleic acid complexes;
b.) adding the mixture of (a) to a multi-well plate;
c.) transferring a test compound to one or more wells of the multi-well plate;
d.) incubating the plate of (c); and
e.) determining the presence of aggregation,
wherein if aggregation is present in (e), the test compound is identified as a compound that may promote aggregation.
1. A mixture of 1 μM proteins, glycoproteins, or protein-nucleic acid complexes in 40 μg/ml bovine serum albumin is prepared.
2. A portion (20 μl) of the reaction mixture is added to each well of a 384-well mircotitre plate using automated liquid dispenser.
3. Chemicals from a chemical library are assayed by transferring approximately 100 nl to each assay well by a 384 solid pin array.
4. The plates are incubated at 37° C. for 6 hours and the extent of chemical induced aggregation is recorded by an aggregation plate reader.

Chain of nucleoprotein (Influenza A virus, UniProt P15682) (P15682 whole entry): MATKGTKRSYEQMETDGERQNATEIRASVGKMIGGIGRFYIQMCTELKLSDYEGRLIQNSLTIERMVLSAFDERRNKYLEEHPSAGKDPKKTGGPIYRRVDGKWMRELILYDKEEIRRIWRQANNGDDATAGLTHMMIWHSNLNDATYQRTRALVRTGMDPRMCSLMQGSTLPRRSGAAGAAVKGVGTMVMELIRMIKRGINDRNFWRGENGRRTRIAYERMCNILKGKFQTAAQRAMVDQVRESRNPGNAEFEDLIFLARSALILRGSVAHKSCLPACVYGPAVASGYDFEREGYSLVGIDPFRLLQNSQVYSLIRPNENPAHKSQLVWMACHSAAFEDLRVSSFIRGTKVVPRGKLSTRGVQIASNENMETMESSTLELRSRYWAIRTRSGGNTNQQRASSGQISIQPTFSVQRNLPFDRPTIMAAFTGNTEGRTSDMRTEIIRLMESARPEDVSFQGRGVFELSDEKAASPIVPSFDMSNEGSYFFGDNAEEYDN
T1 sequence (P03466 whole entry): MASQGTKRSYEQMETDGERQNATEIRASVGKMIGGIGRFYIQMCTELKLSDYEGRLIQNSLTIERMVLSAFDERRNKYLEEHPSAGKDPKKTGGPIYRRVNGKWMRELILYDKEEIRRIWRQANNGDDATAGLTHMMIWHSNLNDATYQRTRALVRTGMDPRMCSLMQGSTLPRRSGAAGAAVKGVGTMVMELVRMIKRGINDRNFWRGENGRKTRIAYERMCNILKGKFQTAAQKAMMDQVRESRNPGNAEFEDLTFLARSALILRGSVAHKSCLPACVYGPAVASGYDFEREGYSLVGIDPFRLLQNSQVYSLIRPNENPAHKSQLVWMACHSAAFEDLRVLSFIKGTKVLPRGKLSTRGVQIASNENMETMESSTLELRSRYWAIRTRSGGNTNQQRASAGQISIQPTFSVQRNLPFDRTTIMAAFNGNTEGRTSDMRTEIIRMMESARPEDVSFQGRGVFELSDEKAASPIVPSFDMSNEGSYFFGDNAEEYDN

Take nucleozin: the “survival rate versus untreated controls” value in experiment [1] (mice after inoculation by influenza A virus H5N1 strain A/Vietnam/1194/04) is listed as “significantly higher survival rate”. Besides, in experiment [1] (mice, two doses of nucleozin (250 nmole per dose) per day i.p. for 5 days, H5N1 A/Vietnam/1194/04 i.n.), the “animals surviving for more than 21 days” value was 90%. Also, the “viral growth (viral titres)” value in the experiment with A/WSN/33 virus (nucleozin 0.1 μM) was “suppressed viral growth”. The “virus production (viral titres)” value with A/WSN/33 virus (nucleozin at 1 (unit cut off in the text)) is “completely inhibited virus production”. In addition, in the experiment on nucleoprotein [2], the “amount of nucleoprotein running into the native gradient gel” value was “reduces the amount of nucleoprotein running into the native gradient gel in a dose-dependent manner” and the “nucleoprotein-RNA complex that runs into the 4-12% polyacrylamide gradient gel” value is listed as “dose-dependent reduction”. On nucleoprotein [3] (influenza A/WSN/33, 3 hours post infection), the “nucleoprotein localisation at 3 hours post infection” value is on record as ““halo” of dense nucleoprotein aggregates surrounding the perinuclear region in the cytoplasm”. Besides, the “nucleoprotein localisation at 24 hours after infection” value at nucleoprotein [3] (influenza A/WSN/33, 24 hours after infection) is listed as “nucleoprotein trapped in the cytoplasm was seen scattered randomly in host cells”. The “nucleoprotein accumulation in the nucleus” value at nucleoprotein [3] (influenza A/WSN/33 virus infection) was “potent antagonist of nucleoprotein accumulation in the nucleus”. The aggregation of nucleoproteins result at nucleoproteins [4] was “aggregation of nucleoproteins was observed”. The aggregation of nucleoproteins entry on nucleoproteins [5] was “aggregation of nucleoproteins was observed”.
